# Patent US6706762B1, “Methods for the use of inhibitors of co-repressors for the treatment of neoplastic diseases” (The Salk Institute for Biological Studies, priority 1997, dated 2004)
# Legend:
# [1] = tested on: myeloid leukemia (HL-60) cells; experiment: Differentiation of HL-60 cells, CD14 and CD11b expression by flow cytometry; assay type: cell-based, human; settings: 72 hours
# Experimental: If HDAC is a critical component of receptor function then addition of a deacetylase inhibitor, such as Trichostatin A (TSA) (Taunton et al., Science 272:408-411 (1996)) would be expected to relieve transcriptional repression, resulting in a promoter that is likely to be more sensitive to the addition of hormone. This prediction was tested by studying the effect of TSA on the differentiation of myeloid leukemia (HL-60) cells (Collins, Blood 70:1233-1244 (1987)) following a high dose ( 100 nM) 9-cis RA treatment. A hallmark of this process is the appearance of cell surface differentiation markers CD14 and CD11b (Brackman et al., Leukemia Research 19:57-64 (1995)). HL-60 cells cultured in RPMI 10% FBS were plated at a density of 2×10^5/ml in RPMI 2% FBS treated with 9-cis RA (Sigma) and/or Trichostatin A (TSA) (Waco Pure Chemical Industries) for 72 hours and then incubated with R-phycoerythrin (RPE) conjugated anti-human C3bi receptor (CD11b) (DAKO) or RPE-conjugated monoclonal mouse anti-human CD 14 (DAKO) antibodies for 60 minutes on ice. Cells were washed twice with PBS 0.5% BSA and analyzed on a FACScan flow cytometer (Becton Dickinson). The expression of cell surface antigens (CD11b and CD14) were monitored.
# [2] = tested on: PLZF-RARα / GST-SMRT-IDII; experiment: GST-SMRT-IDII affinity matrix, binding of radiolabelled PLZF-RARα; settings: presence of 5 μM ATRA
# Experimental: (§1) Recombinant proteins were obtained as follows and in vitro protein interaction assays were carried out as follows. GST-PLZF and GST-SMRT fusion proteins were produced from E. Coli DH5a or BL-21 cells and purified by glutathione-Sepharose 4B affinity chromatography. Bound proteins were eluted with 15 mM glutathione. Purified proteins were then reloaded on glutathione-Sepharose 4B beads and used as affinity matrices. Protein interaction assays were performed in G buffer (20 mM Tris, 7.9, 150 mM KCl, 1 mM EDTA, 4 mM MgCl2, 0.26 NP-40, 10% Glycerol) at 4° C. for 60 min with gentle rocking. The beads were washed five times with G buffer and bounded proteins were eluted in SDS sample buffer, separated by SDS-PAGE and visualized by autoradiography.
# RARα / SMRT = biological target: T1, RARα / SMRT (Homo sapiens, UniProt P10276); experiment: GST-SMRT (amino acids 1,073-1,330) affinity matrix, radiolabelled RARα; assay type: binding; settings: ATRA
# T1 construct: made in house; host or cells: in vitro translated receptor; GST-SMRT from E. coli
# T1 sequence (P10276 1-462): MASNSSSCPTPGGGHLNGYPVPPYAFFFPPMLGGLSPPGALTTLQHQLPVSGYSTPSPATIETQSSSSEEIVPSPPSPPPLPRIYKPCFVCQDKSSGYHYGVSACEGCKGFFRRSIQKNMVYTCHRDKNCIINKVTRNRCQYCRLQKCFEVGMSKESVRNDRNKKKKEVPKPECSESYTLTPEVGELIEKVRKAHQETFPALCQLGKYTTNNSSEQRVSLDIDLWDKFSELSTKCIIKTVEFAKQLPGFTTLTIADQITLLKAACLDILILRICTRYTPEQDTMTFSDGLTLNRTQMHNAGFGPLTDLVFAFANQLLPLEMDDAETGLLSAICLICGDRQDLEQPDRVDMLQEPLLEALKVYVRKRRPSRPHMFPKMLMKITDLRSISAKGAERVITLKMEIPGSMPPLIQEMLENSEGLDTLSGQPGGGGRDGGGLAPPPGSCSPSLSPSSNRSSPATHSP
# GAL-PLZF-RARα = GAL-PLZF-RARα activation of UAS reporter, transient transfection in CV1 cells; assay type: cell-based; settings: for reporter activation in combination with ATRA: TSA 150 nM or NaB 5 mM plus ATRA; for reporter activation in combination with ATRA / relief of repression by GAL-PLZF-RARα: 16 hours; for relief of repression by GAL-PLZF-RARα: TSA 150 nM or NaB 5 mM
# Experimental: (§2) GAL4-DBD fusions of RARα or PLZF-RARα were transfected into CV1 cells and examination of their RA-activation on UAS reporters. CV1 cells were transfected using DOTAP transfection reagents (Boehringer Mannheim). Luciferase activity of each sample was normalized against internal control β-galactosidase activity (Nagy et al. (1997) Cell 89:373-380). Each transfection was carried out in triplicate and repeated at least three times.
# NB4 cells [3] = experiment: Nitroblue Tetrazolium (NBT) reduction differentiation assay in NB4 cells; assay type: cell-based, human; settings: three days
# Experimental: (§3) This prediction was tested utilizing the NB4 cell line established from a patient with t(15;17) APL. NB4, NB4-R4 (Shao et al. (1997) Blood 89:4282-4289), HL-60 and HL-60R (Robertson et al. (1992) Blood 80:1885-1889) cells were cultured in RPMI with 10% FBS. […] Differentiation assays with RA and/or TSA were carried out as previously described (Nagy et al. (1997) Cell 89:373-380). NBT assay has been described (Nagy et al. (1995) Mole. Cell. Biol. 15:3540-3551).
# PML-RARα/SMRT complex = experiment: GST-SMRT (amino acids 1,073-1,330) affinity matrix, radiolabelled PML-RARα; assay type: binding; settings: ATRA
# [4] = tested on: SMRT associated with PLZF-RARα; experiment: Immunoprecipitation of HA-PLZF-RARα from CV1 cell extracts, immunoblot for SMRT; assay type: cell-based; settings: ATRA (5 μM), 4° C. overnight
# Experimental: (§4) For in vitro immunoprecipitation, in vitro translated proteins were incubated together with 10 μg/μl anti-HA antibody in G buffer at 4° C. for 60 min. Immunocomplexes were isolated by incubation with protein A-agarose, washed four times with G buffer, analyzed by SDS-PAGE and visualized by autoradiography. For in vivo immunoprecipitation, 2×10^7 CV1 cells were transfected with 10 μg of appropriate plasmids and harvested in ice-cold PBS, 24 hours after transfection. Cells were lysed by hypotonic shock and the nuclear pellet was resuspended in IP buffer (PBS, 10 mM NaF, 25 mM β-glycerolphosphate, 0.1% NP-40, 0.5 mM PMSF plus protease inhibitors) and disrupted by mild sonication.
# (§5) Immunocomplexes were resolved by SDS-PAGE and analyzed by immunoblotting.
# RARα / GST-SMRT-IDII = biological target: T2, RARα / GST-SMRT-IDII (Homo sapiens, UniProt P10276); experiment: GST-SMRT-IDII affinity matrix, binding of radiolabelled RARα; settings: presence of 5 μM ATRA
# T2 construct: made in house; host or cells: 35S-labelled receptor (in vitro translation); GST-SMRT from E. coli DH5a or BL-21
# T2 sequence (P10276 1-462): T1 sequence (P10276 1-462)
# Experimental: as §1
# [5] = biological target: T3, SMRT associated with RARα (Homo sapiens, UniProt P10276); experiment: Immunoprecipitation of HA-RARα from CV1 cell extracts, immunoblot for SMRT; assay type: cell-based; settings: ATRA (5 μM), 4° C. overnight
# T3 construct: HA-RARα (amino acids 61-462); expressed in transfected cells; host or cells: CV1 cells
# T3 sequence (P10276 61-462): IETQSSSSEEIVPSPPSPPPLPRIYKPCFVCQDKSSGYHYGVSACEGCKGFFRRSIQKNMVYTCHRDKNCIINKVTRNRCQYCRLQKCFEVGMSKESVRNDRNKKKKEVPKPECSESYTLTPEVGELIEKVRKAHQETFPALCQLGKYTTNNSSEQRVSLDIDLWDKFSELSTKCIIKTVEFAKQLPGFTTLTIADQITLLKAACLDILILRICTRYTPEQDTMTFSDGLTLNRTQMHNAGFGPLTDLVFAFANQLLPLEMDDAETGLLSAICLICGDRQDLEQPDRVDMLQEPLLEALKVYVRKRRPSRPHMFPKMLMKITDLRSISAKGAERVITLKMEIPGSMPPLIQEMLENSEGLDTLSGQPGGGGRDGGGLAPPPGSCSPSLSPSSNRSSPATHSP
# Experimental: as §4, §5
# [6] = tested on: SMRT / DNA-bound PML-RARα; experiment: Gel mobility shift assay, GST-SMRT-IDII with PML-RARα homodimers on DR5 elements; assay type: binding; settings: compared with RARα/RXRα heterodimers
# From the text: The protein-DNA complexes were then resolved on a 4.5% native polyacrylamide gel and visualized by autoradiography.
# [7] = tested on: PML-RARα expressing HL-60 cells; settings: Rousselot et al. (1994); cited from earlier work
# [8] = tested on: PLZF-RARα / GST-SMRT-PID2; experiment: GST-SMRT-PID2 affinity matrix, binding of radiolabelled PLZF-RARα; settings: presence or absence of 5 μM ATRA
# Experimental: as §1
# PML-RARα = experiment: TK-βRARE×2-Luc reporter, transcriptional inhibition by PML-RARα in CV1 cells; assay type: cell-based; settings: NaB 5 mM, 100 nM ATRA
# Experimental: as §2
# (§6) It was then sought to determine whether similar effects can be seen on native RA-response elements. As shown previously, exogenous expression of PLZF-RARα or PML-RARα inhibits RA-activation mediated by endogenous RARs on βRARE reporters (FIG. 6(C); de Thé et al. (1991) Cell 66:675-684; Kastner et al. (1992) EMBO J. 11:629-642; Chen et al. (1994) Proc. Natl Acad. Sci. USA 91:1178-1182; Licht et al. (1996) Oncogene 12:323-336; Rousselot et al. (1994) Oncogene 9:545-551).
# PLZF-RARα = experiment: TK-βRARE×2-Luc reporter, transcriptional inhibition by PLZF-RARα in CV1 cells; assay type: cell-based; settings: NaB 5 mM, 100 nM ATRA
# Experimental: as §2, §6
# NB4-R4 cells = experiment: NBT reduction differentiation assay in retinoid-resistant NB4-R4 cells; assay type: cell-based, human; settings: three days
# Experimental: as §3
# NB4 cells [9] = experiment: CD18 expression in NB4 cells by flow cytometry; assay type: cell-based, human; settings: TSA plus 9-cis RA, three days
# Experimental: as §3
# For flow cytometry analysis of CD18 expression, the cells were incubated with a FITC-conjugated anti-CD18 antibody (DAKO) in a dilution of 1:500 in PBS (0.5% BSA) followed by extensive washing before analyzing on a FACSCAN flow cytometer (Becton Dickinson). Although histone deacetylase inhibitors are known to have pleiotropic effects on global gene expression, the fact that CD18 is a direct retinoid target gene (Agura et al. (1992) Blood 79:602-609) supports the notion that histone deacetylases are integral components of PML-RARα mediated differentiation. […] This would explain why the inhibition of SMRT-mediated repression by TSA increases the retinoid sensitivity of NB4 cells.
smiles,measurement,setting,value
"CC1=C(/C=C/C(C)=C\C=C\C(C)=C\C(=O)O)C(C)(C)CCC1 [9-cis RA, 9-cis retinoic acid]",CD14 expression,[1]; suboptimal dose (10 nM) of 9-cis RA alone,modest stimulation
"CC1=C(/C=C/C(C)=C/C=C/C(C)=C/C(=O)O)C(C)(C)CCC1 [ATRA, all-trans retinoic acid]",binding of PLZF-RARα to GST-SMRT-IDII,[2],significantly reduced
same,dissociation of SMRT from RARα,RARα / SMRT,effectively dissociated
same,response of GAL-PLZF-RARα to ATRA (reporter activation),"GAL-PLZF-RARα; ATRA alone, 36 hours, compared to GAL-RARα",poorly responded
same,percentage of NBT-positive cells,"NB4 cells [3]; 1 mM ATRA alone, parental NB4 cells",23%
same,effect on PML-RARα/SMRT complex,PML-RARα/SMRT complex,only weakly affected
same,amount of SMRT associated with PLZF-RARα,[4],largely unaffected
same,binding of RARα to GST-SMRT-IDII,RARα / GST-SMRT-IDII,significantly reduced
same,amount of SMRT which associates with RARα,[5],greatly reduced
same,ATRA concentration required to dissociate SMRT from DNA-bound PML-RARα versus RAR,[6],substantially higher concentrations
same,ATRA concentration up to which cells are resistant,[7],up to 10^−7 M
same,binding of PLZF-RARα to GST-SMRT-PID2,[8],ligand-insensitive
"CCCC(=O)[O-].[Na+] [NaB, sodium butyrate]",relief of transcriptional inhibition by PML-RARα on βRARE reporter,PML-RARα,"partially, relieves transcriptional inhibition"
same,reporter activation in combination with ATRA,GAL-PLZF-RARα,synergized with ATRA
same,relief of repression by GAL-PLZF-RARα,GAL-PLZF-RARα,relieved repression
same,RA activation of βRARE reporter in the presence of PLZF-RARα,PLZF-RARα,restore nearly full RA activation
"CC(/C=C/C(=O)NO)=C\[C@@H](C)C(=O)c1ccc(N(C)C)cc1 [TSA, Trichostatin A]",percentage of NBT-positive cells,NB4-R4 cells; ATRA and 200 nM TSA,18%
same,hormone-induced differentiation (NBT-positive cells),NB4-R4 cells; TSA plus ATRA,partially restored hormone-induced differentiation
same,RA-induced expression of early differentiation marker CD18,NB4 cells [9],strong stimulatory effect
same,reporter activation in combination with ATRA,GAL-PLZF-RARα,synergized with ATRA
same,relief of repression by GAL-PLZF-RARα,GAL-PLZF-RARα,relieved repression
same,differentiation effect of ATRA (NBT-positive cells),NB4 cells [3]; TSA 50 nM plus ATRA at all concentrations tested,dramatically enhanced
same,differentiation (NBT-positive cells),NB4 cells [3]; TSA (50 nM) alone,no effect
same,CD14 expression,[1]; 100 nM TSA alone,minimal effect
same,CD14 expression,"[1]; TSA plus 10 nM 9-cis RA, compared with 100 nM 9-cis RA",dramatic enhancement
same,CD14 expression,[1]; TSA plus high dose (100 nM) 9-cis RA,enhanced
same,CD11b expression,[1]; combination of TSA and 9-cis RA,cooperative at both high and low doses
same,CD11b expression,[1]; low doses of TSA alone,partially activated gene expression
